From patent US9222016B2, “Compound having fluorescent chromophore, ion concentration sensor including compound, reagent including compound, reagent kit provided with reagent, precursor of compound, and method for synthesizing compound” (National University Corporation Hokkaido University, priority 2011, dated 2015)

Columns and labels:
[1] = Fluorescence spectrum measurement of triazapentalenes (Example 3); format: physicochemical; conditions: for λem (emission wavelength): excitation at absorption maximum; for φr (relative fluorescence quantum yield): dichloromethane, standard 9,10-bis(phenyl ethynyl)anthracene (0.96)
Procedure: The fluorescence spectrum of various triazapentalenes that have been synthesized by the same method as described in Example 1 and Example 2 was measured. A method for measurement will be specifically described below.
As triazapentalenes, compounds with the substituent group being a phenyl group, methoxyphenyl group, 2-cyanophenyl group, methoxycarbonylphenyl group, methyl ester group, diphenyl group, 3-cyanophenyl group, and nitrophenyl group were used.
(§1) Each of the above compounds was made into solution with concentration shown in Table 2 using dichloromethane as a solvent. […] The concentration of a sample solution was adjusted such that the intensity (Abs.) of absorption maximum wavelength was 0.100±0.005, and using a spectrophotometer (manufactured by Hitachi High-Technologies Corporation, U-3500), each fluorescence spectrum was measured with excitation wavelength (λex)=326 nm to 412 nm that was equal to absorption maximum wavelength. The fluorescence quantum yield was determined using 9,10-bis(phenyl ethynyl)anthracene (absolute fluorescence quantum yield=0.96) as a standard substance.
In FIG. 1 and Table 2, with regard to a substituent group, Ph represents a phenyl group, Me represents a methyl group, CO2Me represents a methyl ester group, OMe represents a methylalkoxy group, and CN represents a cyano group. Further, in Table λex represents excitation wavelength, ε represents a molar extinction coefficient, λem represents emission wavelength, φr represents a relative fluorescence quantum yield using 9,10-bis(phenyl ethynyl)anthracene (absolute fluorescence quantum yield=0.96) as a standard, and “−” represents no measurement data available.

[2] = standard substance; cited from earlier work
[3] = substituent at R^5; cited from earlier work
[4] = Solvatochromic fluorescence of triazapentalenes in various solvents (Example 4); format: physicochemical; conditions: dichloromethane, acetonitrile, benzene
Procedure: The fluorescence of a triazapentalene compound whose substituent group was -PhCN was measured in various solvents. A method for measurement will be specifically described below.
As solvents, dichloromethane (manufactured by Junsei Chemical Co., Ltd.), acetonitrile (manufactured by Kanto Chemical Co., Inc.), benzene (manufactured by Nacalai Tesque, Inc.), and acetone (manufactured by Nacalai Tesque, Inc.) were individually used.
Each of the triazapentalene compound whose substituent group was -PhCN was dissolved in the above solvent. With regard to the concentration of each solution, the concentration of solution with dichloromethane being used as the solvent was 5.81×10^−6 mol/L, the concentration of solution with acetonitrile being used as the solvent was 3.65×10^−6 mol/L, the concentration of solution with benzene being used as the solvent was 5.43×10^−6 mol/L, and the concentration of solution with acetone being used as the solvent was 6.63×10^−6 mol/L. Using a […] (manufactured by Hitachi High-Technologies Corporation, F-4500), the ultraviolet absorption spectrum was measured, and the absorption maximum wavelength (λmax) was determined to be 382 nm. […] The fluorescence quantum yield was determined using 9,10-bis(phenyl ethynyl)anthracene (absolute fluorescence quantum yield=0.96) as a standard substance.

[5] = Maximum absorption wavelength, maximum fluorescence wavelength and fluorescence quantum yield (Example 6); format: physicochemical; conditions: same manner as Example 3
Procedure: as §1
For each of the compounds shown in Table 3, the maximum absorption wavelength (λabs^max), maximum fluorescence wavelength (λem^max), and fluorescence quantum yield (ΦF) were measured. Further, the Hammett constant (σp) of substituent group was together described in Table 3. In Table 3, “-” represents no measurement data available. The measurement of the absorption wavelength, fluorescence wavelength, and fluorescence quantum yield was carried out in the same manner as described in Example 3. Here, a method of synthesizing compounds of 1o^a and 1r will be later described in Example 8. Compounds of 1e, 1n, 1f, 1g, 1l, 1k, 1h, and 1m, which are shown in Table 3 were synthesized by the method and condition described in Examples 1 to 2. Further, the compound 1a shown in Table 3 was synthesized under the under the same condition as in Example 1 and Example 2 except that a CO2CH3 part in the chemical formula 13 of the reaction formula (5) was replaced with a hydrogen atom. Thereby, the compound 1a having a triazapentalene backbone whose R^5 position was bound with the hydrogen atom was obtained.

[6] = Fluorescence of disubstituted product (Example 7); format: physicochemical; conditions: CH2Cl2 solution, excitation wavelength 370 nm
Source text: Disubstituted products other than the disubstituted product represented by the chemical formula 20 are synthesized by the same method as the disubstituted product represented by the chemical formula 20. The numerical values in Table 4 and Table 5 were obtained in CH2Cl2 solution under a condition of an excitation wavelength of 370 nm

Row | λex (excitation wavelength, equal to absorption maximum wavelength λmax) ([1]; dichloromethane solution) [nm] | λem (emission wavelength) ([1]; dichloromethane solution) [nm] | ε (molar extinction coefficient) ([1]; dichloromethane solution) | φr (relative fluorescence quantum yield) [1] [%] | absorption maximum wavelength (λmax) ([4]; acetone solutions) [nm] | solvatochromism of fluorescence spectrum (FIG. 2) ([4]; acetone, λex 382 nm) | λabs^max (maximum absorption wavelength) [5] [nm] | λem^max (maximum fluorescence wavelength) [5] [nm] | φF (fluorescence quantum yield) [5] | λabs (absorption wavelength) [6] [nm] | λem (fluorescence wavelength) [6] [nm] | φF (quantum yield) [6] | fluorescence intensity (FIG. 1) ([1]; dichloromethane solution) | SMILES | absolute fluorescence quantum yield [2] | Hammett σP of substituent group [3]
1 | 381 | 509 | 2.85 10^3 cm − M^−1 | 18 | 382 | significant solvatochromism was observed | 381 | 509 | 0.18 | 381 | 509 | 0.18 | stronger fluorescence intensity | Cn1c(-c2ccc(C#N)cc2)cn2ccc[n+]12 [Compound 1h] | – | 0.71
2 | 376 | 510 | 3.02 10^3 cm − M^−1 | 51 | – | – | 376 | 510 | 0.51 | – | – | – | – | COC(=O)c1ccc(-c2cn3ccc[n+]3n2C)cc1 [Compound 1k] | – | 0.47
3 | 412 | 556 | – | 16 | – | – | 412 | 556 | 0.16 | – | – | – | – | Cn1c(-c2ccc([N+](=O)[O-])cc2)cn2ccc[n+]12 [Compound 1m] | – | 0.81
4 | 330 | 413 | 5.70 10^3 cm − M^−1 | 6.2 | – | – | 330 | 413 | 0.062 | – | – | – | – | COc1ccc(-c2cn3ccc[n+]3n2C)cc1 [Compound 1n] | – | −0.28

More lines, now with the values behind:

Row | SMILES | λex (excitation wavelength, equal to absorption maximum wavelength λmax) ([1]; dichloromethane solution) [nm] | λem (emission wavelength) ([1]; dichloromethane solution) [nm] | ε (molar extinction coefficient) ([1]; dichloromethane solution) | φr (relative fluorescence quantum yield) [1] [%] | absorption maximum wavelength (λmax) ([4]; acetone solutions) [nm] | solvatochromism of fluorescence spectrum (FIG. 2) ([4]; acetone, λex 382 nm) | λabs^max (maximum absorption wavelength) [5] [nm] | λem^max (maximum fluorescence wavelength) [5] [nm] | φF (fluorescence quantum yield) [5] | λabs (absorption wavelength) [6] [nm] | λem (fluorescence wavelength) [6] [nm] | φF (quantum yield) [6] | fluorescence intensity (FIG. 1) ([1]; dichloromethane solution) | absolute fluorescence quantum yield [2] | Hammett σP of substituent group [3]
5 | Cn1c(-c2cccc(C#N)c2)cn2ccc[n+]12 | 330 | 481 | – | – | – | – | – | – | – | – | – | – | – | – | –
6 | C(#Cc1c2ccccc2c(C#Cc2ccccc2)c2ccccc12)c1ccccc1 [9,10-bis(phenylethynyl)anthracene] | – | – | – | – | – | – | – | – | – | – | – | – | – | 0.96 | –
7 | Cn1c(-c2ccccc2)cn2ccc[n+]12 [Compound 1f] | 326 | 419 | 3.82 10^3 cm − M^−1 | 3.0 | – | – | – | – | – | – | – | – | – | – | 0.00
